The subject of this experiment is BDF1 mice, L1210 Methyl-GAG-resistant leukemia, survival T/C. As to the kind of experiment: NCI In Vivo Anticancer Drug Screen. Data for tumor model L1210 Leukemia resistant to Methyl-GAG; NSC 32946 (subcutaneous) in B6D2F1 (BDF1) mice. Particulars: endpoint: mean survival time, higher = longer survival. On the procedure:
The antitumor activity of compounds was measured in mice bearing transplantable tumors. Survival or tumor size were measured and the results are expressed as the measurement made in the treated group (T) divided by the measurement made in the vehicle treated control group (C). The tumor model used in this assay is L1210 Leukemia resistant to Methyl-GAG; NSC 32946 (subcutaneous) in B6D2F1 (BDF1) mice

[1] abbreviates: dose: 12.5 mg/kg/injection, schedule: Q01DX Z (ip), vehicle: water.
[2] abbreviates: dose: 25.0 mg/kg/injection, schedule: Q01DX Z (ip), vehicle: water.
[3] abbreviates: dose: 50.0 mg/kg/injection, schedule: Q01DX Z (ip), vehicle: water.
Where [4] appears, read: dose: 12.5 mg/kg/injection, schedule: Q01DX Z (ip), vehicle: carboxymethylcellulose (CMC).
Where [5] appears, read: dose: 25.0 mg/kg/injection, schedule: Q01DX Z (ip), vehicle: carboxymethylcellulose (CMC).

The source of these data is PubChem BioAssay AID306 (DTP/NCI, 2004).

SMILES strings stand for the structures. Several values for one entry are separate records, joined by “and”; a condition that tells them apart may be missing. Identical values can stand only once. Inconclusive results and toxic doses are left out.

With `CN(C)c1ccc(/C=C\c2ccnc3ccccc23)cc1`, the T/C was 97 % of control and 107 % of control (dose: 0.4 mg/kg/injection, schedule: Q01DX Z (ip), vehicle: water); 89 % of control and 105 % of control (dose: 0.8 mg/kg/injection, schedule: Q01DX Z (ip), vehicle: water); 104 % of control (dose: 1.6 mg/kg/injection, schedule: Q01DX Z (ip), vehicle: water); 101 % of control (dose: 3.1 mg/kg/injection, schedule: Q01DX Z (ip), vehicle: water); 90 % of control (dose: 6.25 mg/kg/injection, schedule: Q01DX Z (ip), vehicle: water); 95 % of control under setting [1]. The T/C runs as follows: under setting [2], 104 % of control; under setting [3], 97 % of control and 107 % of control.

On to `O=C(Nc1ccc(C2=NCCN2)cc1)c1cccc(C(=O)Nc2ccc(C3=NCCN3)cc2)c1`, for which the T/C (dose: 1.2 mg/kg/injection, schedule: Q01DX Z (ip), vehicle: water) is 102 % of control; the T/C (dose: 2.4 mg/kg/injection, schedule: Q01DX Z (ip), vehicle: water) was 108 % of control; the T/C (dose: 9.4 mg/kg/injection, schedule: Q01DX Z (ip), vehicle: water) is 211 % of control; the T/C under setting [1] is 223 % of control; the T/C (dose: 18.8 mg/kg/injection, schedule: Q01DX Z (ip), vehicle: water) is 226 % of control; the T/C under setting [2] is 236 % of control. The T/C was 202 % of control (dose: 37.5 mg/kg/injection, schedule: Q01DX Z (ip), vehicle: carboxymethylcellulose (CMC)); 287 % of control (dose: 37.5 mg/kg/injection, schedule: Q01DX Z (ip), vehicle: water); 113 % of control under setting [3]; 224 % of control (dose: 75.0 mg/kg/injection, schedule: Q01DX Z (ip), vehicle: carboxymethylcellulose (CMC)); 247 % of control (dose: 150.0 mg/kg/injection, schedule: Q01DX Z (ip), vehicle: carboxymethylcellulose (CMC)).

Regarding `O=c1cn[nH]c(=O)[nH]1`, the T/C was 96 % of control (dose: 62.5 mg/kg/injection, schedule: Q01DX Z (ip), vehicle: carboxymethylcellulose (CMC)); 106 % of control (dose: 125.0 mg/kg/injection, schedule: Q01DX Z (ip), vehicle: carboxymethylcellulose (CMC)); 116 % of control (dose: 250.0 mg/kg/injection, schedule: Q01DX Z (ip), vehicle: carboxymethylcellulose (CMC)); 114 % of control (dose: 500.0 mg/kg/injection, schedule: Q01DX Z (ip), vehicle: carboxymethylcellulose (CMC)); 112 % of control (dose: 1000.0 mg/kg/injection, schedule: Q01DX Z (ip), vehicle: carboxymethylcellulose (CMC)).

For the compound `C[C@H](N)C(=O)N[C@@H]1[C@H]2C(=C(O)C[C@@H](O)[C@@H]2O)C(=O)O[C@@H]1C`, the T/C (dose: 31.25 mg/kg/injection, schedule: Q01DX Z (ip), vehicle: saline) is 96 % of control; the T/C (dose: 125.0 mg/kg/injection, schedule: Q01DX Z (ip), vehicle: saline) was 102 % of control; the T/C (dose: 250.0 mg/kg/injection, schedule: Q01DX Z (ip), vehicle: saline) was 116 % of control; the T/C (dose: 2000.0 mg/kg/injection, schedule: Q01DX Z (ip), vehicle: saline) is 96 % of control.

For the compound `CCn1cnc2c(=S)nc[nH]c21`, the T/C is, setting by setting: (dose: 8.0 mg/kg/injection, schedule: Q01DX Z (ip), vehicle: carboxymethylcellulose (CMC)) 113 % of control; (dose: 16.0 mg/kg/injection, schedule: Q01DX Z (ip), vehicle: carboxymethylcellulose (CMC)) 106 % of control; (dose: 31.0 mg/kg/injection, schedule: Q01DX Z (ip), vehicle: carboxymethylcellulose (CMC)) 120 % of control.

As to `CC(=O)O[C@]1(C(C)=O)CC[C@H]2[C@@H]3C[C@H](C)C4=CC(=O)C=C[C@]4(C)[C@@]3(F)[C@@H](O)C[C@@]21C`, the T/C was 102 % of control (dose: 10.0 mg/kg/injection, schedule: Q01DX Z (sc), vehicle: steriod suspending solution); 105 % of control (dose: 20.0 mg/kg/injection, schedule: Q01DX Z (sc), vehicle: steriod suspending solution); 121 % of control (dose: 40.0 mg/kg/injection, schedule: Q01DX Z (sc), vehicle: steriod suspending solution); 114 % of control (dose: 80.0 mg/kg/injection, schedule: Q01DX Z (sc), vehicle: steriod suspending solution); 121 % of control (dose: 160.0 mg/kg/injection, schedule: Q01DX Z (sc), vehicle: steriod suspending solution); 115 % of control (dose: 320.0 mg/kg/injection, schedule: Q01DX Z (sc), vehicle: steriod suspending solution).

As to `N=[N+]=CC(=O)OCC(N)C(=O)O` (stereo unspecified), the T/C was 104 % of control (dose: 1.56 mg/kg/injection, schedule: Q01DX Z (ip), vehicle: saline); 104 % of control (dose: 3.12 mg/kg/injection, schedule: Q01DX Z (ip), vehicle: saline); 100 % of control (dose: 4.7 mg/kg/injection, schedule: Q01DX Z (ip), vehicle: saline); 156 % of control and 150 % of control (dose: 12.5 mg/kg/injection, schedule: Q01DX Z (ip), vehicle: saline); 104 % of control (dose: 18.8 mg/kg/injection, schedule: Q01DX Z (ip), vehicle: saline); 116 % of control (dose: 25.0 mg/kg/injection, schedule: Q01DX Z (ip), vehicle: saline).

As for `C[C@]12CCC(=O)C=C1CC[C@@H]1[C@@H]2C(=O)C[C@@]2(C)[C@H]1CC[C@]2(O)C(=O)CO`, the T/C is 100 % of control (dose: 6.25 mg/kg/injection, schedule: Q01DX Z (sc), vehicle: steriod suspending solution); 102 % of control (dose: 25.0 mg/kg/injection, schedule: Q01DX Z (sc), vehicle: steriod suspending solution); 121 % of control (dose: 62.5 mg/kg/injection, schedule: Q01DX Z (sc), vehicle: steriod suspending solution); 113 % of control (dose: 100.0 mg/kg/injection, schedule: Q01DX Z (sc), vehicle: steriod suspending solution); 116 % of control (dose: 400.0 mg/kg/injection, schedule: Q01DX Z (sc), vehicle: steriod suspending solution).

For the compound `CSc1ncnc2nc[nH]c12`, the T/C by setting is: under setting [4], 106 % of control; under setting [5], 111 % of control; (dose: 50.0 mg/kg/injection, schedule: Q01DX Z (ip), vehicle: carboxymethylcellulose (CMC)) 106 % of control; (dose: 100.0 mg/kg/injection, schedule: Q01DX Z (ip), vehicle: carboxymethylcellulose (CMC)) 115 % of control; (dose: 200.0 mg/kg/injection, schedule: Q01DX Z (ip), vehicle: carboxymethylcellulose (CMC)) 97 % of control.

For `NC(=O)c1ccc(N)nc1`, the T/C (dose: 0.31 mg/kg/injection, schedule: Q01DX Z (ip), vehicle: saline) is 106 % of control; the T/C (dose: 0.31 mg/kg/injection, schedule: Q01DX Z (ip), vehicle: water) is 102 % of control; the T/C (dose: 0.63 mg/kg/injection, schedule: Q01DX Z (ip), vehicle: saline) is 101 % of control; the T/C (dose: 0.63 mg/kg/injection, schedule: Q01DX Z (ip), vehicle: water) is 115 % of control; the T/C (dose: 1.25 mg/kg/injection, schedule: Q01DX Z (ip), vehicle: saline) was 98 % of control.

Turning to `Nc1nc(=S)c2ncn(C3OC(CO)C(O)C3O)c2[nH]1` (stereo unspecified), the T/C is, setting by setting: (dose: 0.16 mg/kg/injection, schedule: Q01DX Z (ip), vehicle: carboxymethylcellulose (CMC)) 92 % of control; (dose: 0.31 mg/kg/injection, schedule: Q01DX Z (ip), vehicle: carboxymethylcellulose (CMC)) 91 % of control; (dose: 0.62 mg/kg/injection, schedule: Q01DX Z (ip), vehicle: carboxymethylcellulose (CMC)) 102 % of control; (dose: 1.25 mg/kg/injection, schedule: Q01DX Z (ip), vehicle: carboxymethylcellulose (CMC)) 111 % of control; (dose: 2.5 mg/kg/injection, schedule: Q01DX Z (ip), vehicle: carboxymethylcellulose (CMC)) 152 % of control.

For `S=P(N1CC1)(N1CC1)N1CC1`, the T/C by setting is: (dose: 0.62 mg/kg/injection, schedule: Q01DX Z (ip), vehicle: saline) 111 % of control; (dose: 5.0 mg/kg/injection, schedule: Q01DX Z (ip), vehicle: saline) 150 % of control; (dose: 10.0 mg/kg/injection, schedule: Q01DX Z (ip), vehicle: saline) 110 % of control.

For the compound `Oc1cc(CN(CCCl)CCCl)c(O)cc1CN(CCCl)CCCl`, the T/C is, setting by setting: (dose: 1.88 mg/kg/injection, schedule: Q01DX Z (sc), vehicle: steriod suspending solution) 103 % of control; (dose: 3.75 mg/kg/injection, schedule: Q01DX Z (sc), vehicle: steriod suspending solution) 111 % of control; (dose: 7.5 mg/kg/injection, schedule: Q01DX Z (sc), vehicle: steriod suspending solution) 115 % of control.

Turning to `S=P(N1CCOCC1)(N1CC1)N1CC1`, the T/C under setting [4] is 104 % of control and the T/C under setting [5] is 102 % of control.
